Test results from patent US8846737B2, “Compound” (Sterix Limited, priority 2009, dated 2014).

Experiments:
Aromatase = target: T1, Aromatase (Homo sapiens, UniProt P11511); assay: Aromatase activity in JEG3 cells (Protocol 6); assay type: cell-based; settings: intact JEG3 cells, [1β-3H]androstenedione, 30 min
T1 construct: host or cells: JEG3 choriocarcinoma cells, intact monolayers
T1 sequence (P11511 1-503): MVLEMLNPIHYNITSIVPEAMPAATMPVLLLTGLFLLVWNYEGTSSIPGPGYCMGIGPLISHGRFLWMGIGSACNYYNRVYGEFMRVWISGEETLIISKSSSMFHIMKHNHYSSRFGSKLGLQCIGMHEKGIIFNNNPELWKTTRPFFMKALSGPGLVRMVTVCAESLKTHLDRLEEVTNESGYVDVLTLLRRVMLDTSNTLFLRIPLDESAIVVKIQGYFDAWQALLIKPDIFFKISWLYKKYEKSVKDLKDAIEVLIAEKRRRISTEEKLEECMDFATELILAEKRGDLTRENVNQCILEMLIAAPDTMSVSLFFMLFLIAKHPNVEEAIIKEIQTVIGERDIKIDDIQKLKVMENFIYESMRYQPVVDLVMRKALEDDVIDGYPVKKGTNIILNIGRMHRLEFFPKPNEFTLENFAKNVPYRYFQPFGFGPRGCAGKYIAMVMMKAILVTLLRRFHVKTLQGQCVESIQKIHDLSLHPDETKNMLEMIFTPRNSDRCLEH
Experimental: Assay for Determining Aromatase Activity Using JEG3 Cells
Aromatase activity is measured in JEG3 choriocarcinoma cells, obtained from the ATCC. […] During the aromatase reaction, ^3H2O is liberated which can be quantified using a liquid scintillation spectrometer. […] The number of cell nuclei per flask is determined using a Coulter Counter after treating the cell monolayers with Zaponin.
Aromatase inhibition was measured in accordance with Protocol 6.

Steroid sulphatase (STS) = target: T2, Steroid sulphatase (STS) (Homo sapiens, UniProt P08842); assay: Inhibition of steroid sulphatase activity in JEG3 cells (Protocol 1); assay type: cell-based; settings: intact JEG3 cells, [6,7-3H]oestrone-3-sulphate, 3-4 hours
T2 construct: host or cells: JEG3 choriocarcinoma cells, intact monolayers
T2 sequence (P08842 22-583): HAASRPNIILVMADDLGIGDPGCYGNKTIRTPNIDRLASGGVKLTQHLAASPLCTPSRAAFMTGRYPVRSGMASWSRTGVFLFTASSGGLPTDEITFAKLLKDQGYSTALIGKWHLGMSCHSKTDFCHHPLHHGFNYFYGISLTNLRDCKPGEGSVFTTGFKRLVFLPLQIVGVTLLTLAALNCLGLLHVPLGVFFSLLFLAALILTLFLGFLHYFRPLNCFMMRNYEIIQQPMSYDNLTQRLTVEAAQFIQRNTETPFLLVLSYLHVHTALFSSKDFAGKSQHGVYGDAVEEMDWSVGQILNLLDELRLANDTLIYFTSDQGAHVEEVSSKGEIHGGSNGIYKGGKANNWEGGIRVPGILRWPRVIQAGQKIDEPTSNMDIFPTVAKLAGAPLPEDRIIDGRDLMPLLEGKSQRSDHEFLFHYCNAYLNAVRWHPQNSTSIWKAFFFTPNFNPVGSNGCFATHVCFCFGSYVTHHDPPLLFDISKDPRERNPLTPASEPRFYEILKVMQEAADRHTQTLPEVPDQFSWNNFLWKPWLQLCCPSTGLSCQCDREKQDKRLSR
Experimental: Assay for Determining STS Activity Using Cancer Cells
Inhibition of Steroid Sulphatase Activity in JEG3 Cells
Steroid sulphatase activity is measured in vitro using intact JEG3 choriocarcinoma cells.
Cells are maintained in Minimal Essential Medium (MEM) containing 20 mM HEPES, 5% foetal bovine serum, 2 mM glutamine, non-essential amino acids and 0.075% sodium bicarbonate. Up to 30 replicate 25 cm^2 tissue culture flasks are seeded with approximately 1×10^5 cells/flask using the above medium Cells are grown to 80% confluency and the medium is changed every third day.
Intact monolayers of JEG3 cells in triplicate 25 cm^2 tissue culture flasks are washed with Earle's Balanced Salt Solution (EBSS) and incubated for 3-4 hours at 37° C. with 5 pmol (7×10^5 dpm) [6, 7-3H]oestrone-3-sulphate (specific activity 60 Ci/mmol) in serum-free MEM (2.5 ml) together with oestrone-3-sulphamate (11 concentrations: 0; 1fM; 0.01 pM; 0.1 pM, 1 pM; 0.01 nM; 0.1 nM; 0.01 mM; 0.1 mM; 1 mM). After incubation each flask is cooled and the medium (1 ml) is pipetted into separate tubes containing [14C]oestrone (7×10^3 dpm) (specific activity 97 Ci/mmol). The mixture is shaken thoroughly for 30 seconds with toluene (5 ml) Experiments have shown that >90% [14C]oestrone and <0 1% [3H]oestrone-3-sulphate is removed from the aqueous phase by this treatment A portion (2 ml) of the organic phase is removed, evaporated and the 3H and 14C content of the residue determined by scintillation spectrometry The mass of oestrone-3-sulphate hydrolysed was calculated from the 3H counts obtained (corrected for the volumes of the medium and organic phase used, and for recovery of [14C] oestrone added) and the specific activity of the substrate Each batch of experiments includes incubations of microsomes prepared from a sulphatase-positive human placenta (positive control) and flasks without cells (to assess apparent non-enzymatic hydrolysis of the substrate). The number of cell nuclei per flask is determined using a Coulter Counter after treating the cell monolayers with Zaponin One flask in each batch is used to assess cell membrane status and viability using the Trypan Blue exclusion method (Phillips, H J. (1973) In: Tissue culture and applications, [eds: Kruse, D. F. & Patterson, M. K]; pp 406-408; Academic Press, New York)
Results for steroid sulphatase activity are expressed as the mean±1S.D. of the total product (oestrone+oestradiol) formed during the incubation period (3-4 hours) calculated for […] and, for values showing statistical significance, as a percentage reduction (inhibition) over incubations containing no oestrone-3-sulphamate. Unpaired Student's t-test was used to test the statistical significance of results
Sterioid sulphatase inhibition was measured in accordance with Protocol 1

| SMILES | IC50 (Aromatase) [nM] | IC50 (Steroid sulphatase (STS)) [nM] |
| --- | --- | --- |
| N#Cc1ccc(N(Cc2ccc(Br)cc2)n2cnnc2)cc1-c1ccccc1 [Compound 1] | < 0.1 | – |
| N#Cc1ccc(N(Cc2ccc(Br)cc2)n2cnnc2)c(-c2ccccc2)c1 [Compound 2] | 960 ± 53 | – |
| N#Cc1ccc(N(Cc2ccc(OS(N)(=O)=O)cc2)n2cnnc2)cc1-c1ccccc1 [Compound 3] | 0.25 ± 0.03 | 3 ± 0.5 |
| N#Cc1ccc(N(Cc2ccc(OS(N)(=O)=O)c(Br)c2)n2cnnc2)cc1-c1ccsc1 [Compound 9] | 2.6 ± 0.2 | 3.9 ± 0.8 |
| N#Cc1ccc(N(Cc2ccc(OS(N)(=O)=O)cc2)n2cnnc2)cc1N1CCCCCC1=O [Compound 11] | 850 ± 104 | 1300 ± 265 |
| N#Cc1ccc(N(Cc2ccc(O)cc2)n2cnnc2)cc1Cc1ccccc1 [Compound 12] | < 0.1 | – |
| N#Cc1ccc(N(Cc2ccc(OS(N)(=O)=O)cc2)n2cnnc2)cc1Cc1ccccc1 [Compound 13] | < 0.1 | 41 ± 3 |
| N#Cc1ccc(N(Cc2ccc(OS(N)(=O)=O)cc2)n2cnnc2)cc1N1CCCC1 [Compound 15] | < 0.1 | 60 ± 7 |
| N#Cc1ccc(N(Cc2ccc(OS(N)(=O)=O)cc2)n2cnnc2)cc1N1CCOCC1 [Compound 21] | 44 ± 5 | – |
| CN1CCN(c2cc(N(Cc3ccc(O)cc3)n3cnnc3)ccc2C#N)CC1 [Compound 22] | 13.8 ± 4.51 | – |
| N#Cc1ccc(N(CCc2c(F)cc(O)cc2F)n2cnnc2)cc1 [Compound 24] | 0.14 ± 0.03 | – |
| N#Cc1ccc(N(CCc2c(F)cc(OS(N)(=O)=O)cc2F)n2cnnc2)cc1 [Compound 25] | – | 485 ± 50.7 |
| N#Cc1ccc(N(Cc2ccc(OS(N)(=O)=O)cc2)n2cnnc2)c2ccccc12 [Compound 27] | 200 ± 5 | – |
| N#Cc1ccc(N(Cc2ccc(O)cc2F)n2cnnc2)cc1-c1ccccc1 [Compound 30] | 0.35 ± 0.06 | – |
| N#Cc1ccc(N(Cc2ccc(O)c(F)c2F)n2cnnc2)cc1-c1ccccc1 [Compound 33] | 1 ± 0.3 | – |
| COc1ccc(-c2cc(N(Cc3c(F)cc(O)cc3F)n3cnnc3)ccc2C#N)cc1 [Compound 35] | < 0.1 | – |
| N#Cc1ccc(C(c2ccc(O)cc2)n2cncn2)cc1-c1ccccc1 (stereo not drawn) [Compound 37] | 0.23 ± 0.04 | – |
| N#Cc1ccc(N(Cc2ccc(O)cc2)n2cnnc2)cc1CN1CCCC1 [Compound 40] | 8 | – |
| COc1ccc(Cc2cc(N(Cc3ccc(O)cc3)n3cnnc3)ccc2C#N)cc1 [Compound 44] | 3.1 ± 0.4 | – |
| N#Cc1ccc(N(Cc2c(F)cc(O)cc2F)n2cnnc2)cc1-c1ccc(F)cc1 [Compound 46] | 4.1 ± 0.2 | – |
| N#Cc1ccc(N(Cc2ccc(O)cc2)n2cnnc2)cc1-c1ccncc1 [Compound 50] | 4.03 ± 0.29 | – |
| N#Cc1ccc(N(Cc2ccc(O)cc2)n2cnnc2)cc1Oc1ccccc1 [Compound 56] | 1.82 ± 0.03 | – |

Second part, the compound after the results:

| IC50 (Aromatase) [nM] | IC50 (Steroid sulphatase (STS)) [nM] | SMILES |
| --- | --- | --- |
| < 0.1 | – | N#Cc1ccc(N(Cc2ccc(O)cc2)n2cnnc2)cc1-c1ccccc1 [CAB06021, 5-((4-Hydroxybenzyl)(4H-1,2,4-triazol-4-yl)amino)biphenyl-2-carbonitrile] |
| 0.39 ± 0.09 | – | N#Cc1ccc(Nn2cnnc2)cc1-c1ccccc1 [CAB06022, 5-(4H-1,2,4-Triazol-4-ylamino)biphenyl-2-carbonitrile] |
| 0.14 ± 0.01 | 17 ± 2 | N#Cc1ccc(N(Cc2ccc(OS(N)(=O)=O)cc2)n2cnnc2)cc1-c1ccccc1 [CAB06025, 4-(((6-Cyanobiphenyl-3-yl)(4H-1,2,4-triazol-4-yl)amino)methyl)phenyl sulfamate] |
| 3.6 ± 0.4 | – | N#Cc1ccc(N(Cc2ccc(O)c(Br)c2)n2cnnc2)cc1-c1ccccc1 [CAB06026, 5-((3-Bromo-4-hydroxybenzyl)(4H-1,2,4-triazol-4-yl)amino)biphenyl-2-carbonitrile] |
| 1.6 ± 0.6 | – | N#Cc1ccc(N(Cc2ccc(O)c(F)c2)n2cnnc2)cc1-c1ccccc1 [CAB06043, 5-((3-Fluoro-4-hydroxybenzyl)(4H-1,2,4-triazol-4-yl)amino)biphenyl-2-carbonitrile] |
| 0.15 ± 0.03 | 2.3 ± 0.9 | N#Cc1ccc(N(Cc2ccc(OS(N)(=O)=O)c(F)c2)n2cnnc2)cc1-c1ccccc1 [CAB06044, 4-(((6-Cyanobiphenyl-3-yl)(4H-1,2,4-triazol-4-yl)amino)methyl)-2-fluorophenyl sulfamate] |
| 0.018 ± 0.01 | 0.13 ± 0.01 | N#Cc1ccc(N(Cc2ccc(OS(N)(=O)=O)c(Br)c2)n2cnnc2)cc1-c1ccccc1 [CAB06045, 2-Bromo-4-(((6-cyanobiphenyl-3-yl)(4H-1,2,4-triazol-4-yl)amino)methyl)phenyl sulfamate] |
| 0.26 ± 0.12 | – | COc1ccc(-c2cc(Nn3cnnc3)ccc2C#N)cc1 [CAB06046, 5-(4H-1,2,4-Triazol-4-ylamino)-4′-methoxybiphenyl-2-carbonitrile] |
| 0.015 ± 0.005 | 0.83 ± 0.15 | N#Cc1ccc(N(Cc2ccc(OS(N)(=O)=O)c(Cl)c2)n2cnnc2)cc1-c1ccccc1 [CAB06049, 2-Chloro-4-(((6-cyanobiphenyl-3-yl)(4H-1,2,4-triazol-4-yl)amino)methyl)phenyl sulfamate] |
| 0.33 ± 0.01 | – | N#Cc1ccc(N(Cc2ccccc2)n2cnnc2)cc1-c1ccc(O)cc1 [CAB06052, 5-(Benzyl-[1,2,4]triazol-4-yl-amino)-4′-hydroxy-biphenyl-2-carbonitrile] |
| 0.1 ± 0.02 | 2900 ± 180 | N#Cc1ccc(N(Cc2ccccc2)n2cnnc2)cc1-c1ccc(OS(N)(=O)=O)cc1 [CAB06054, 5′-(Benzyl(4H-1,2,4-triazol-4-yl)amino)-2′-cyanobiphenyl-4-yl sulfamate] |
| 0.05 ± 0.01 | 2900 ± 100 | N#Cc1ccc(N(Cc2ccc(Br)cc2)n2cnnc2)cc1-c1ccc(OS(N)(=O)=O)cc1 [CAB06059, 5′-((4-Bromobenzyl)(4H-1,2,4-triazol-4-yl)amino)-2′-cyanobiphenyl-4-yl sulfamate] |
| 0.015 ± 0.001 | 22 ± 6 | COc1ccc(-c2cc(N(Cc3ccc(OS(N)(=O)=O)cc3)n3cnnc3)ccc2C#N)cc1 [CAB06077] |
| 0.47 ± 0.18 | 55 ± 6 | N#Cc1ccc(N(Cc2ccc(OS(N)(=O)=O)cc2)n2cnnc2)cc1-c1ccc(F)cc1 [CAB06078, 4-(((6-Cyano-4′-fluorobiphenyl-3-yl)(4H-1,2,4-triazol-4-yl)amino)methyl)phenyl sulfamate] |
| 0.75 ± 0.18 | 240 ± 60 | N#Cc1ccc(-c2cc(N(Cc3ccc(OS(N)(=O)=O)cc3)n3cnnc3)ccc2C#N)cc1 [CAB06088, 4-(((4′,6-Dicyanobiphenyl-3-yl)(4H-1,2,4-triazol-4-yl)amino)methyl)phenyl sulfamate] |
